Measurements from paper PMC3165048 (Chemistry & biology, 2010).
In brackets after ≈: the same amount, converted by molar mass.

Columns and labels:
[1] = test system: Replicating M. tuberculosis; test: Minimum inhibitory concentration in replicating M. tuberculosis culture; assay type: cell-based, M. tuberculosis H37Rv
MtMetAP1a = MtMetAP1a (Mycobacterium tuberculosis, UniProt P9WK20); test: Coupled methionine-proline aminopeptidase enzymatic assay; assay type: biochemical; conditions: […] CoCl2, 600 µM Met-Pro-pNA, 20 min pre-incubation
[2] = test system: Aged-cultured (non-replicating) M. tuberculosis; test: microbe, parasite or virus in culture; assay type: cell-based, M. tuberculosis H37Ra; conditions: Mycobacterium tuberculosis, read-out: M.I.C. Aged-cultured M. tuberculosis
MtMetAP1c = MtMetAP1c (Mycobacterium tuberculosis, UniProt P9WK18); test: biochemical; conditions: […] CoCl2, 600 µM Met-Pro-pNA, 20 min pre-incubation
MtMetAP1c, sequence (P9WK18 whole entry): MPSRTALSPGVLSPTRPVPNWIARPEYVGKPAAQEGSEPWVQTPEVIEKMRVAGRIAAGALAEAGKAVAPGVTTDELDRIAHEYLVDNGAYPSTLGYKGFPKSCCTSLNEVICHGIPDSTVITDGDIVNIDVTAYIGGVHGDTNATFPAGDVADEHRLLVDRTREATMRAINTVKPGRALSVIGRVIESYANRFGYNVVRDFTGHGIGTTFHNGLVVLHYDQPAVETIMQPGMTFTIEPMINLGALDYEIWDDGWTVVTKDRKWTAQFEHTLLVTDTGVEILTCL

MtMetAP1a, sequence (P9WK20 whole entry): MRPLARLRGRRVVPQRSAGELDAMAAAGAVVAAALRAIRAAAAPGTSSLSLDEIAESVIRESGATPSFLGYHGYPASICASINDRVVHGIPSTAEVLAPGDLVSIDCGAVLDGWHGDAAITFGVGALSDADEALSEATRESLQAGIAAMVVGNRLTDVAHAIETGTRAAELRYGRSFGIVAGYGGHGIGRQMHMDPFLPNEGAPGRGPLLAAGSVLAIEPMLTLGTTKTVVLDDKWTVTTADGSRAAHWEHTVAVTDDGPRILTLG

In the case of `O=C1C(Cl)=C(Cl)C(=O)c2ccccc21` [Compound 4, 2,3-dichloro-1,4-naphthoquinone], the “M.I.C. Replicating M. tuberculosis” value [1] is reported as 10 µg/mL, the IC50 (MtMetAP1a) is reported as 3.3 ± 0.3 µM and the MIC [2] is reported as 5.7 to 11.4 µg/mL (≈ 25.1 to 50.2 µM). For the same compound, the IC50 (MtMetAP1c) was 6.6 ± 1.2 µM.
